The test system of the assay is PQS. Briefly: PQS Inhibition Assay (24 Hour Incubation). Format: cell-based, P. aeruginosa PA14 wild-type strain. The protocol: Test compounds are dissolved in DMSO at 10 mM and stored at −20° C. until needed. Seven test concentrations from 0.0032 micromolar to 31.6 micromolar are used for each compound. P. aeruginosa PA14 wild-type strain is inoculated into 5 mL LB broth in a 15-mL sterile glass culture tube and incubated overnight at 37° C. under shaking (˜240 rpm). The overnight culture is then diluted in LB Broth to give an OD600=0.04 (T0 culture). Colony Forming Units (CFU)/mL of the overnight culture and T0 culture are determined by a series of 1:10 serial dilutions in sterile saline. 4×20 μL of each dilution is seeded on LB agar plates and incubated at 35±2° C. for 20 hours. CFU/mL is determined from the dilution that gives 2 to 50 colonies/20 μL.
For concentration response curve (CRC) experiments, internal standard (2-((5-nitro-1H-indol-2-yl)thio)-N-(4-phenoxyphenyl)acetamide)) and test compounds are serially diluted in DMSO to give 200 times of each final concentration (0.5% DMSO final), and 1 μL/well is dispensed in duplicate into 2-mL wells of a 96 well deep well plate. 200 μL/well of T0 culture is added to each internal standard/test compound well used to determine PQS control level. Wells containing only LB broth (blank wells) are also included in the plate.
The plate is sealed and incubated at 37° C. for 24 hours under shaking (˜700 rpm) using a microtiter shaker. At the end of the incubation period, 150 μL/well of the deep well plate culture are transferred in a new non-sterile plate, and 150 μL/well of methanol containing tetra-deuterated PQS (D4-PQS) and 2% acetic acid are added to each well. The plate is sealed, shaken at high speed for 5 minutes and centrifuged at 4,000 g for 40 minutes at room temperature. 100 μL/well of the supernatant is then transferred to glass vials (vials crimp 0.2 mL) and kept at 4° C. until LC-MS/MS analysis.
PQSs quantification is carried out by analyzing samples in discrete batches together with spiked standards and blank samples.
Calibration curves are constructed from PQS standards, and respective deuterated PQS is used as an Internal Standards (IS) to calculate the concentration of analytes in the sample and improve the precision of the assay. The back-calculated concentrations of the calibration standards from the calibration curve shall be within ±20% of the nominal values, the range of the analytical method is determined, and the lower and upper limit of quantification specified.
Liquid chromatography separations are performed using an Agilent HP1100 system (Agilent Technologies) coupled with a CTC PAL Autosampler (CTC Analytics AG). Chromatographic retention is obtained using a monolithic column (Chromolith® RP-18, 50×4.6 mm). The solvent system consists of water containing 0.1% (v/v) formic acid (A) and acetonitrile containing 0.1% (v/v) formic acid (B). The gradient elution profile is chosen as follows: 0 min: 70% A (1500 μL/min), 0.3 min: 70% A (1500 μL/min), 1.3 min: 5% A (2500 μL/min), 1.6 min: 5% A (2500 μL/min).
The MS/MS analysis is performed with an API4000 series mass spectrometer (AB Sciex™) operating in Multiple Reaction Monitoring (MRM) mode and equipped with a TIS ion source. The specific ions monitored are PQS (m/z 260→m/z 175) and D4-PQS (m/z 264→m/z 179). The computer systems used in this study to acquire and quantify data may be an Analyst™ v1.5.
PQS in the presence of different concentrations of test compound are expressed as percentage of inhibition of the basal level in control samples. Curve fitting and IC50 estimations are carried out using a four parameter logistic model using GraphPad Prism v.5 program.

The mark [1] stands for this setting: Pseudomonas aeruginosa, PA14, 24 h, read-out: PQS (24 hr) IC50 (μM).

Like-named read-outs stand apart in the source and are kept apart here. A value given as a limit tells only on which side of the number the result lay.

With `COc1ccc(NC(=O)CSc2nc3ccc(Cl)cc3[nH]2)cc1` [Compound 140], the IC50 under setting [1] was in the range of 5 to 10 µM.

Consider `N#Cc1ccc(NC(=O)CSc2nc3cc(F)ccc3[nH]2)cc1` [Compound 57], for which the IC50 under setting [1] lay within 1 to 5 µM.

On to `O=C(CSc1nc2ccc(Br)cc2[nH]1)Nc1ccc(Cl)cc1` [Compound 145], for which the concentration for half-maximal inhibition (IC50) under setting [1] was more than 10 µM.

With `O=C(CCc1nc2cc(Cl)ccc2s1)Nc1ccc(Oc2cccnc2)cc1` [Compound 85, 3-(5-chlorobenzo[d]thiazol-2-yl)-N-(4-(pyridin-3-yloxy)phenyl)propanamide], the IC50 under setting [1] is more than 10 µM.

Turning to `N#Cc1ccc2nc(SCC(=O)Nc3ccc(Cl)cc3)[nH]c2c1` [Compound 94], under setting [1], the IC50 is 1 to 5 µM.

Turning to `O=C(CCc1nc2ccc(Cl)cc2s1)Nc1ccc(Oc2cccnc2)cc1` [Compound 86, 3-(6-Chlorobenzo[d]thiazol-2-yl)-N-(4-(pyridin-3-yloxy)phenyl)propanamide], the IC50 under setting [1] was more than 10 µM.

For the molecule `O=C(CSc1nc2ccc(Cl)cc2[nH]1)Nc1ccc(Cl)cc1` [Compound 137], the IC50 under setting [1] fell in the range of 1 to 5 µM.

`O=C(CNc1nc2cc(Cl)ccc2o1)Nc1ccc(Oc2cccnc2)cc1` [Compound 74, 2-((5-chlorobenzo[d]oxazol-2-yl)amino)-N-(4-(pyridin-3-yloxy)phenyl)acetamide]: the IC50 under setting [1] was 1 to 5 µM.

Regarding `O=C(CNc1nc2cc(Cl)ccc2s1)Nc1ccc(Oc2cccnc2)cc1` [Compound 71, 2-((5-chlorobenzo[d]thiazol-2-yl)amino)-N-(4-(pyridin-3-yloxy)phenyl)acetamide], the half-inhibitory concentration (IC50) under setting [1] was in the range of 5 to 10 µM.

Regarding `N#Cc1ccc(NC(=O)CSc2nc3cc(C(F)(F)F)ccc3[nH]2)cc1` [Compound 56], under setting [1], the IC50 was less than 1 µM.

Regarding `N#Cc1ccc(NC(=O)CSc2nc3cc(Cl)ccc3[nH]2)cc1` [Compound 125], the IC50 under setting [1] was less than 1 µM.

On to `O=C(CSc1nc2ccc(-n3cccn3)cc2[nH]1)Nc1ccc(Cl)cc1` [Compound 116], for which the half-maximal inhibitory concentration (IC50) under setting [1] is more than 10 µM.

In the case of “2-((5-chloro-1H-benzo[d]imidazol-2-yl)thio)-N-(4-(pyrimidin-5-yloxy)phenyl)acetamide [Compound 79]”, the IC50 (P. aeruginosa PA14 culture, 24 hours incubation, PQS by LC-MS/MS, read-out: PQS (24 hr) IC50) is less than 1 µM.

Take `N#Cc1ccc(NC(=O)CSc2nc3cc(Br)ccc3o2)cc1` [Compound 147]: the IC50 under setting [1] is 1 to 5 µM.

`O=C(CSc1nc2cc(F)c(F)cc2[nH]1)Nc1ccc(Br)cc1` [Compound 126]: the IC50 under setting [1] is more than 10 µM.

For the molecule `O=C(CSc1nc2cc(C(F)(F)F)ccc2[nH]1)Nc1ccc(Cl)cc1` [Compound 105], the IC50 under setting [1] is 1 to 5 µM.

On to `N#Cc1ccc(NC(=O)CSc2nc3cc(Br)ccc3[nH]2)cc1` [Compound 96], for which the half-inhibitory concentration (IC50) under setting [1] is less than 1 µM.

Regarding `N#Cc1ccc(NC(=O)CSc2nc3cc(OC(F)F)ccc3[nH]2)cc1` [Compound 104], under setting [1], the IC50 was 5 to 10 µM.

With `O=C(CSc1nc2cc(Cl)ccc2[nH]1)Nc1ccc(Oc2cccnc2Cl)cc1` [Compound 83, 2-((5-chloro-1H-benzo[d]imidazol-2-yl)thio)-N-(4-((2-chloropyridin-3-yl)oxy)phenyl)acetamide], the 50% inhibitory concentration (IC50) under setting [1] was less than 1 µM.

Consider `N#Cc1ccc(NC(=O)CSc2nc3cc(Cl)ccc3[nH]2)cc1Cl` [Compound 142], for which, under setting [1], the IC50 was less than 1 µM.

Regarding `O=C(CSc1nc2cc(Cl)ccc2[nH]1)Nc1ccc(Oc2cccnc2)cc1` [Compound 77, 2-((5-chloro-1H-benzo[d]imidazol-2-yl)thio)-N-(4-(pyridin-3-yloxy)phenyl)acetamide], the IC50 under setting [1] was less than 1 µM.

For the molecule `O=C(CSc1nc2cc(Cl)ccc2[nH]1)Nc1ccc(Oc2ccc(Cl)nc2)cc1` [Compound 84, 2-((5-chloro-1H-benzo[d]imidazol-2-yl)thio)-N-(4-((6-chloropyridin-3-yl)oxy)phenyl)acetamide], the IC50 under setting [1] lay in the range of 1 to 5 µM.

For `O=C(CSc1nc2cc(F)ccc2[nH]1)Nc1ccc(Cl)cc1` [Compound 110], under setting [1], the IC50 is 5 to 10 µM.

Turning to `N#Cc1ccc(NC(=O)CSc2nc3ccc(C#N)cc3[nH]2)cc1` [Compound 93], the IC50 under setting [1] was less than 1 µM.

Consider `O=C(CCc1nc2ccc(Cl)cc2[nH]1)Nc1ccc(Oc2cccnc2)cc1` [Compound 152, 3-(5-chloro-1H-benzo[d]imidazol-2-yl)-N-(4-(pyridin-3-yloxy)phenyl)propanamide], for which the 50% inhibitory concentration (IC50) under setting [1] was 1 to 5 µM.

The values above are taken from patent US9643933B2, “Compounds useful as antibiotic tolerance inhibitors” (priority 2013, dated 2017).
